Results from patent publication US5047412A, “Alkene derivatives” (Imperial Chemical Industries PLC, priority 1985, dated 1991).

Experiments:
[1] = target: T1, blood platelet aggregation (TXA2 antagonism) (Homo sapiens, UniProt P21731); experiment: blood platelet aggregation test (test (b)); format: cell-based; conditions: procedure (b), human citrated platelet-rich plasma, U46619
T1 construct: aggregating human, citrated platelet-rich plasma; endogenous in cells; host or cells: human platelets in citrated platelet-rich plasma
T1 sequence (P21731 1-343): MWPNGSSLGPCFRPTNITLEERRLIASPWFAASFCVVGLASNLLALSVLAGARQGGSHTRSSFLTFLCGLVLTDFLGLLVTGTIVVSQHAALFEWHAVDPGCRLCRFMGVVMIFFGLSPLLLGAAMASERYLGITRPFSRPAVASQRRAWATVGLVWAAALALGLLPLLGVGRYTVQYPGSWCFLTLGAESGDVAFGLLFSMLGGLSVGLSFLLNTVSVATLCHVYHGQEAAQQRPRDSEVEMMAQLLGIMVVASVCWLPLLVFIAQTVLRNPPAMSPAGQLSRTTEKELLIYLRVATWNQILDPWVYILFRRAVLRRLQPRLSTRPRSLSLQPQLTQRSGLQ
Source text: (b) a blood platelet aggregation test based on that described by Born (Nature, 1962, 194, 927-929) and involving:
(i) aggregating human, citrated platelet-rich plasma by addition of the TXA2 mimetic agent U46619 so that a dose-response curve is generated;
(ii) generating a dose-response curve for U46619 stimulated platelet aggregation in the presence of increasing amounts of test compound (generally in the range, 10^-5 M to 10^-10 M); and
(iii) calculating a Kb value indicating potency of TXA2 antagonism for the test compound, averaged over several concentrations, from the calculated 50% response value for U46619 aggregation in the presence and absence of test compound; and […]

[2] = test system: rabbit aortal strip (TXA2 antagonism); experiment: rabbit aortal strip model (test (a)); format: cell-based; conditions: procedure (a), agonist U46619
Method: (a) the rabbit aortal strip model devised by Piper and Vane (Nature, 1969, 223, 29-35) using as agonist a freshly prepared sample of TXA2, generated by addition of arachidonic acid (25 μg) to citrated, platelet rich rabbit plasma (250 μl) and allowing the mixture to aggregate fully over 90 seconds before use; alternatively the TXA2 mimetic agent known as U46619 (described by R. L. Jones et alia, in "Chemistry, Biochemistry and Pharmacological Activity of Prostanoids" edited by S. M. Roberts and F. Scheinmann, at page 211, Pergamon Press, 1979) may be used as the agonist;

Kb [1]: 0.012 µM
SMILES: O=C(O)CC/C=C\C[C@@H]1CO[C@H](/C=C/c2ccccc2)O[C@@H]1c1ccccc1O (relative stereo) [Example 1, 4(Z)-6-([2,4,5-cis]-4-o-hydroxyphenyl-2(E)-styryl-1,3-dioxan-5-yl)hexenoicacid]
pA2 [2]: 8.9
